Data taken from patent US10538564B2, “Peptides having osteoblast growth-promoting activity and use thereof” (PHARMA FOODS INTERNATIONAL CO., LTD., priority 2014, dated 2020).
No end group written: not given here.

Key:
[1] = tested on: mature female rats (eight months old); experiment: Bone formation-promoting effect in mature rats; format: in vivo, rat; details: 20 weeks
Protocol: Synthetic peptide No. 1 was administered to mature female rats (eight months old, ten rats in each group) by oral gavage using a gastric tube once a day for 20 weeks. The dose of the synthetic peptide was 1, 10 or 100 mg/kg·day.

[2] = tested on: aged female rats (13 to 14 months old); experiment: Bone formation-promoting effect in aged rats; format: in vivo, rat; details: oral 1, 10 or 100 mg/kg·day, 20 weeks
Protocol: Synthetic peptide No. 1 was administered to aged female rats (13 to 14 months old, ten rats in each group) by oral gavage using a gastric tube once a day for 20 weeks. The dose of the synthetic peptide was 1, 10 or 100 mg/kg·day.

[3] = No. 1 oral 1, 10 or 100 mg/kg·day, alendronate 300 μg/kg subcutaneous, vs control group

Sequence: VNPESEEE [No. 1]
- levels of the increases (femur bone density, cancellous bone volume) compared with alendronate [1]: comparable to those in the alendronate administration group
- bone density in the femurs [1, 3]: significantly increased
- cancellous bone volume in the proximal tibial metaphysis [1, 3]: significantly increased
- bone density in the femurs [2]: increased in a dose-dependent manner
- cancellous bone volume in the proximal tibial metaphysis [2]: increased in a dose-dependent manner
